Measured values published in patent US20230250096A1, “SUBSTITUTED PHENYL-1H-PYRROLO[2,3-c] PYRIDINE DERIVATIVES” (Janssen Pharmaceutica NV, priority 2021, published 2023).

Each compound was assayed on MOLM14 cells (assay: Proliferation assay (spheroid confluence, 8 days), MOLM14). Settings: Homo sapiens, MOLM-14, MOLM14; read-out: spheroid assay_MOLM14 IC50.
Format: cell-based, human
Experimental: The anti-proliferative effect of menin/MLL protein/protein interaction inhibitor test compounds was assessed in human leukemia cell lines. The cell line MOLM14 harbors a MLL translocation and expresses the MLL fusion protein MLL-AF9, respectively, as well as the wildtype protein from the second allele. OCI-AML3 cells that carry the NPM1c gene mutation were also tested. […] KO-52 was used as a control cell line containing two MLL (KMT2A) wildtype alleles in order to exclude compounds that display general cytotoxic effects.
MOLM14 cells were cultured in RPMI-1640 (Sigma Aldrich) supplemented with 10% heat-inactivated fetal bovine serum (HyClone), 2 mM L-glutamine (Sigma Aldrich) and 50 μg/ml gentamycin (Gibco). KO-52 and OCI-AML3 cell lines were propagated in alpha-MEM (Sigma Aldrich) supplemented with 20% heat-inactivated fetal bovine serum (HyClone), 2 mM L-glutamine (Sigma Aldrich) and 50 μg/ml gentamycin (Gibco).
In order to assess the anti-proliferative effects, 200 MOLM14 cells, 200 OCI-AML3 cells or 300 KO-52 cells were seeded in 200 μl media per well in 96-well round bottom, ultra-low attachment plates (Costar, catalogue number 7007). Cell seeding numbers were chosen based on growth curves to ensure linear growth throughout the experiment. Test compounds were added at different concentrations and the DMSO content was normalized to 0.3%. Cells were incubated for 8 days at 37° C. and 5% CO2. Spheroid like growth was measured in real-time by live-cell imaging (IncuCyteZOOM, Essenbio, 4×objective) acquiring images at day 8. Confluence (%) as a measure of spheroid size was determined using an integrated analysis tool.
In order to determine the effect of the test compounds over time, the confluence in each well as a measure of spheroid size, was calculated. Confluence of the highest dose of a reference compound was used as baseline for the LC (Low control) and the confluence of DMSO treated cells was used as 0% cytotoxicity (High Control, HC).
Absolute IC50 values were calculated as percent change in confluence as follows:
LC=Low Control: cells treated with e.g. 1 μM of the cytotoxic agent staurosporin, or e.g. cells treated with a high concentration of an alternative reference compound
HC=High Control: Mean confluence (%) (DMSO treated cells)
% Effect=100−(100*(Sample−LC)/(HC−LC))
GraphPad Prism (version 7.00) was used to calculate the IC50. Dose-response equation was used for the plot of % Effect vs Log10 compound concentration with a variable slope and fixing the maximum to 100% and the minimum to 0%.

Row | Structure (SMILES) | IC50 [nM]
1 | CNC(=O)[C@H]1CC[C@@H](CN2CC[C@@H](Cc3cn(-c4ccc(F)cc4C(=O)N(C)C(C)C)c4cncc(C)c34)C2)CC1 [Compound 185] | 23
2 | CC(=O)NC1CCC(N2CC[C@H](Cc3cn(-c4ccc(F)cc4C(=O)N(C)C(C)C)c4cncc(C)c34)C2)CC1 (some centres unmarked) [Compound 211] | 169
3 | CC(=O)N1CCC(C(C)N2CCC(Cc3cn(-c4ccc(F)cc4C(=O)N(C)C(C)C)c4cncc(C)c34)C2)CC1 (single isomer, unassigned) [Compound 116a] | 8
4 | Cc1cncc2c1c(C[C@@H]1CCN(C[C@@H]3CCNC(=O)CC3)C1)cn2-c1ccc(F)cc1C(=O)N1[C@H](C)CC[C@H]1C (single isomer, unassigned) [Compound 352b] | 140
5 | CC(=O)N1CCN(CCCC(C(C)C)N2CC[C@H](Cc3cn(-c4ccc(F)cc4C(=O)N(C)C(C)C)c4cncc(C)c34)C2)CC1 (mixture of isomers) [Compound 9] | 13
6 | CC(=O)N1CC2CC(C1)C2N1CC[C@@H](Cc2cn(-c3ccc(F)cc3C(=O)N(C)C(C)C)c3cncc(C)c23)C1 (some centres unmarked) [Compound 209] | 458
7 | Cc1cncc2c1c(C[C@@H]1CCN(CC3CCNC(=O)CC3)C1)cn2-c1ccc(F)cc1C(=O)N1CCC[C@H]1C (single isomer, unassigned) [Compound 353a] | 6
8 | CCC([C@H]1C[C@@H](N2CCN(C(C)=O)CC2)C1)N1CC[C@@H](Cc2cn(-c3ccc(F)cc3C(=O)N(C)C(C)C)c3cncc(C)c23)C1 (mixture of isomers) [Compound 24] | 13
9 | Cc1cncc2c1c(C[C@@H]1CCN(CC3CCNC(=O)CC3)C1)cn2-c1ccc(F)cc1C(=O)N(C)C(C)C (mixture of isomers) [Compound 169] | 16
10 | Cc1cncc2c1c(C[C@@H]1CCN([C@H](C)C3CCOCC3)C1)cn2-c1ccc(F)cc1[S@](=N)(=O)C(C)C (single isomer, unassigned) [Compound 180a] | 39
11 | CC(=O)N1CCC(CN2CC[C@@H](Cc3cn(-c4ccc(F)cc4C(=O)N4CCC[C@H]4C)c4cncc(C)c34)C2)CC1 [Compound 315] | 10
12 | Cc1cncc2c1c(C[C@@H]1CCN(C[C@H]3CCNC(=O)CC3)C1)cn2-c1ccc(F)cc1C(=O)N1[C@H](C)CC[C@H]1C (single isomer, unassigned) [Compound 352a] | 7
13 | COCCN(C)CCCC(C(C)C)N1CC[C@@H](Cc2cn(-c3ccc(F)cc3C(=O)N(C)C(C)C)c3cncc(Cl)c23)C1 (some centres unmarked) [Compound 3] | 4
14 | CC(=O)N1CCC(CN2CC[C@@H](Cc3cn(-c4ccc(F)cc4C(=O)N4CCC5CC54)c4cncc(C)c34)C2)CC1 (some centres unmarked) [Compound 311] | 17
15 | CC(=O)N1CCC(CN2CC[C@@H](Cc3cn(-c4ccc(F)cc4C(=O)N4CCC[C@@H]4C)c4cncc(C)c34)C2)CC1 [Compound 319] | 139
16 | Cc1cncc2c1c(CC1CN(CC3CCOCC3)C1)cn2-c1ccc(F)cc1C(=O)N1CCC2CC21 (centres unmarked) [Compound 262] | 15
17 | COCCN(C)CCCC(C(C)C)N1CCC(Cc2cn(-c3ccc(F)cc3C(=O)N(C)C(C)C)c3cncc(F)c23)C1 (centres unmarked) [Compound 6] | 34
18 | Cc1cncc2c1c(C[C@H]1CCN([C@H](C)C3CCOCC3)C1)cn2-c1ccc(F)cc1[S@](=N)(=O)C(C)C (single isomer, unassigned) [Compound 181a] | 44
19 | Cc1cncc2c1c(CC1CCN(CC3CCN(C(=O)[C@@H](C)O)CC3)C1)cn2-c1ccc(F)cc1C(=O)N(C)C(C)C (single isomer, unassigned) [Compound 85] | 12
20 | Cc1cncc2c1c(C[C@@H]1CCN(CC3CCN(C(N)=O)CC3)C1)cn2-c1ccc(F)cc1C(=O)N(C)C(C)C [Compound 207] | 16
21 | CC(=O)N1CCC(CN2CC[C@@H](Cc3cn(-c4ccc(F)cc4C(=O)N4[C@@H](C)CC[C@@H]4C)c4cncc(C)c34)C2)CC1 [Compound 316] | 12

Row | Structure (SMILES) | IC50 [nM]
22 | Cc1cncc2c1c(CC1CN(CC3CCOCC3)C1)cn2-c1ccc(F)cc1C(=O)N1CC2CC1CO2 (centres unmarked) [Compound 264] | 20
23 | CC(=O)N1CCC(CN2CC[C@@H](Cc3cn(-c4ccc(F)cc4C(=O)N4CC5CC4CO5)c4cncc(C)c34)C2)CC1 (some centres unmarked) [Compound 312] | 33
24 | COC(=O)[C@H]1CC[C@@H](CN2CC[C@@H](Cc3cn(-c4ccc(F)cc4C(=O)N(C)C(C)C)c4cncc(C)c34)C2)CC1 [Compound 153] | 35
25 | Cc1cncc2c1c(C[C@@H]1CCN(CC3CCNC(=O)C3)C1)cn2-c1ccc(F)cc1C(=O)N(C)C(C)C (mixture of isomers) [Compound 212] | 305
26 | Cc1cncc2c1c(C[C@@H]1CCN(CC3CCOCC3)C1)cn2-c1ccc(F)cc1S(=N)(=O)C(C)C (mixture of isomers) [Compound 78] | 111
27 | CC(=O)N1CC2CC(C1)C2N1CC[C@H](Cc2cn(-c3ccc(F)cc3C(=O)N(C)C(C)C)c3cncc(C)c23)C1 (some centres unmarked) [Compound 208] | 224
28 | CC(=O)N1CCC([C@H](CO)N2CC[C@@H](Cc3cn(-c4ccc(F)cc4C(=O)N(C)C(C)C)c4cncc(C)c34)C2)CC1 (single isomer, unassigned) [Compound 206a] | 13
29 | Cc1cncc2c1c(C[C@@H]1CCN(CC3CCN(C(=O)C(C)C)CC3)C1)cn2-c1ccc(F)cc1C(=O)N1CCC[C@H]1CO [Compound 328] | 50
30 | Cc1cncc2c1c(CC1CN(CC3CCOCC3)C1)cn2-c1ccc(F)cc1C(=O)N1CCCC1CO (centres unmarked) [Compound 268] | 88
31 | COC[C@H](C1CCCCO1)N1CC[C@@H](Cc2cn(-c3ccc(F)cc3C(=O)N(C)C(C)C)c3cncc(C)c23)C1 (single isomer, unassigned) [Compound 165b] | 4
32 | CON(C)C(=O)N1CCC(CN2CCC(Cc3cn(-c4ccc(F)cc4C(=O)N(C)C(C)C)c4cncc(C)c34)CC2)CC1 [Compound 203] | 12
33 | CC(=O)N1CCC(N2CC[C@H](Cc3cn(-c4ccc(F)cc4C(=O)N(C)C(C)C)c4cncc(C)c34)C2)C(C)C1 (single isomer, unassigned) [Compound 137a] | 15
34 | COCCN(C)CCCC(C(C)C)N1CC[C@H](Cc2cn(-c3ccc(F)cc3C(=O)N(C)C(C)C)c3cncc(Cl)c23)C1 (some centres unmarked) [Compound 4] | 5
35 | COCCN(C)CCCC(C(C)C)N1CC[C@H](Cc2cn(-c3ccc(F)cc3C(=O)N(C)C(C)C)c3cncc(C)c23)C1 (single isomer, unassigned) [Compound 2] | 1
36 | CC(=O)N1CCC(CN2CC[C@@H](Cc3cn(-c4ccc(F)cc4C(=O)N(CC(C)O)C(C)C)c4cncc(C)c34)C2)CC1 (some centres unmarked) [Compound 320] | 19
37 | Cc1cncc2c1c(CC1CCN(CC3CCN(C(=O)N4CCOCC4)CC3)CC1)cn2-c1ccc(F)cc1C(=O)N(C)C(C)C [Compound 204] | 16
38 | CC(=O)N1CCC(CN2CCC(Cc3cn(-c4ccc(F)cc4C(=O)N(C)C(C)C)c4cncc(C)c34)C2C)CC1 (centres unmarked) [Compound 228] | 10
39 | CC(=O)N1C[C@@H]2CN(CCC[C@H](C(C)C)N3CC[C@H](Cc4cn(-c5ccc(F)cc5C(=O)N(C)C(C)C)c5cncc(Cl)c45)C3)C[C@H]2C1 (single isomer, unassigned) [Compound 19a] | 3
40 | Cc1cncc2c1c(C[C@@H]1CCN(C[C@H]3CCCCN3)C1)cn2-c1ccc(F)cc1C(=O)N(C)C(C)C [Compound 199] | 126
41 | Cc1cncc2c1c(C[C@@H]1CCN([C@@H](CO)C3CCCOC3)C1)cn2-c1ccc(F)cc1C(=O)N(C)C(C)C (single isomer, unassigned) [Compound 198a] | 10
42 | Cc1cncc2c1c(CC1CCN(CC3CCN(C(=O)C(C)(C)O)CC3)C1)cn2-c1ccc(F)cc1C(=O)N(C)C(C)C (single isomer, unassigned) [Compound 125] | 11

Same assay, conditions: MOLM14; read-out: spheroid assay_MOLM14 IC50

Row | Structure (SMILES) | IC50 [nM]
43 | CC(=O)NC1CCC(N2CC[C@@H](Cc3cn(-c4ccc(F)cc4C(=O)N(C)C(C)C)c4cncc(C)c34)C2)CC1 (some centres unmarked) [Compound 201] | 31
44 | CN=S(=O)(c1cc(F)ccc1-n1cc(CC2CCN(CC3CCOCC3)C2)c2c(C)cncc21)C(C)C (single isomer, unassigned) [Compound 77b] | 81
45 | Cc1cncc2c1c(CC1CCN(CC3CCC(=O)N(C)CC3)C1)cn2-c1ccc(F)cc1C(=O)N(C)C(C)C (single isomer, unassigned) [Compound 184a] | 13
46 | CC(=O)NC1CCC(N2CC[C@@H](Cc3cn(-c4ccc(F)cc4C(=O)N(C)C(C)C)c4cncc(C)c34)C2)CC1 (some centres unmarked) [Compound 200] | 679
47 | Cc1cncc2c1c(CC1CCN(CC3CCC(=O)N(C)CC3)C1)cn2-c1ccc(F)cc1C(=O)N(C)C(C)C (single isomer, unassigned) [Compound 184b] | 52
